In data set [1] the test system is Plasmodium falciparum 3D7 (CQ-sensitive). Put plainly: In vitro antimalarial assay (malaria SYBR Green I-based fluorescence, MSF), 3D7. It counts as cell-based. An outline of the steps:
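Asynchronous P. falciparum 3D7 cultures (0.5% parasitemia, 2% hematocrit) were exposed to serially diluted compounds, in quadruplicate. Growth was then quantified by SYBR Green I fluorescence after adding lysis buffer containing 0.2 μL/mL dye.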

Data set [2] relates to Plasmodium falciparum Dd2 (multi-drug resistant). Put plainly: In vitro antimalarial assay (malaria SYBR Green I-based fluorescence, MSF), Dd2. It counts as cell-based. The procedure:
In vitro antimalarial activity was determined by a malaria SYBR Green I-based fluorescence (MSF) method described previously by Smilkstein et al. (2004, which is incorporated herein by reference) with slight modification (Winter, et al., 2006, which is incorporated herein by reference). Stock solutions of each test drug were prepared in DMSO at a concentration of 20 mM. The drug solutions were serially diluted with culture medium and distributed to asynchronous parasite cultures on 96-well plates in quadruplicate in a total volume of 100 μL to achieve 0.5% parasitemia with a 2% hematocrit in a total volume of 100 pt. The plates were then incubated for 72 h at 37° C. After incubation, 100 μL of lysis buffer with 0.2 μL/mL SYBR Green I was added to each well. The plates were incubated at 37° C. for an hour in the dark and then placed in a 96-well fluorescence plate reader (Spectramax Gemini-EM; Molecular Diagnostics) with excitation and emission wavelengths at 497 nm and 520 nm, respectively, for measurement of fluorescence.
Antimalarial potency of compounds was determined by this technique for both Plasmodium falciparum 3D7 (CQ-sensitive) and Dd2 (multi-drug resistant) strains.

Data set [3] concerns the target Plasmepsin-2 (PM-2; Plm II) (Plasmodium falciparum (isolate HB3), UniProt P46925). Put plainly: Plasmepsin-2 enzyme inhibition assay. It counts as biochemical. A digest of the protocol: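 Enzymes activated in pH 4.5 citrate/DTT buffer, then assayed in 50 mM sodium acetate pH 4.7, 0.01% Tween-20. Compounds added before fluorogenic peptide substrate (final 20 µM); 60 min at room temperature, fluorescence Ex/Em 360/535 nm, IC50 by curve fit.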

The target of data set [4] is recombinant human Cathepsin D (Homo sapiens (Human), UniProt P07339). Put plainly: Cathepsin D enzyme inhibition FRET assay. It counts as biochemical. As to conditions: Table 8; read-out: CatD IC50. The procedure: (§1) The enzymatic inhibition activity assays were determined using the fluorescence resonance energy transfer (FRET) assay. The assays were performed in a 384-well plate format. […] The concentration of Cathepsin D was 20 ng/μL, and 1 ng/μL of Cathepsin E was used. CatD and CatE were activated by incubation in assay buffer (0.1 M NaOAc, 0.2 M NaCl, pH 3.5) at room temperature for 30 min. Subsequently, the rhBACE-1 substrate (R&D Systems, catalog# ES004), the Cathepsin D and Cathepsin E substrate (R&D Systems, Catalog # ES001) were added accordingly to final concentration 20 μM to initiate the reaction. After 60 min incubation at room temperature, the time-resolved fluorescence at Ex/Em=360 nm/460 nm was measured on an EnVision multilabel plate reader (Perkin-Elmer). The analytical software, GraphPad Prism 5.0 (GraphPad Software, Inc., USA) was used to generate IC50 values via non-linear regression analysis, which are reported in Tables 8-13 below as BACE1 IC50 values.
recombinant human Cathepsin D, sequence (P07339 65-412): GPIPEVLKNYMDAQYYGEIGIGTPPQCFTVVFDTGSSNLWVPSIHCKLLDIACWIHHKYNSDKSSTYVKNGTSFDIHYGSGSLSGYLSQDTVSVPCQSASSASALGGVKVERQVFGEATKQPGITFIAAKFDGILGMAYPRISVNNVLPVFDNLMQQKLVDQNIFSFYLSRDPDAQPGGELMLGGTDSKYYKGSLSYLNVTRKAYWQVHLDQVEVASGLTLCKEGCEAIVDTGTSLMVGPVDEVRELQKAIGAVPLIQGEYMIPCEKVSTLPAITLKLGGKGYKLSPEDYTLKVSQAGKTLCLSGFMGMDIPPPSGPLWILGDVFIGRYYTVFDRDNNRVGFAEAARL

Data set [5] deals with recombinant human Cathepsin E (Homo sapiens (Human), UniProt P14091). Put plainly: Cathepsin E enzyme inhibition FRET assay. Type of data set: biochemical. As to conditions: Table 8; read-out: CatE IC50. The procedure:
as §1

Data set [6] in a line: RLM metabolic stability assay. As to conditions: pH 7.4, rat liver microsomes, read-out: RLM t1/2. Type of data set: in vitro ADME. The procedure:
In this protocol, the metabolic stability of compounds at 1 μM was determined in Mouse Liver Microsome (MLM), rat liver microsomes (RLM) or human liver microsomes (HLM). […]. After incubation at 37° C. for a specific time period (0, 5, 10, 20 and 30 min), the reaction was terminated by the addition of 200 μL ice cold acetonitrile containing internal standard (100 ng/mL) after 100 μL aliquots of reaction mixture was removed. The quenched reaction mixtures were centrifuged at 3200 rpm for 5 min, and 100 μL of the supernatant were transferred to 96-well deep plate. The samples in 96 well plate were analyzed by LC-MS/MS using an Applied Biosystems-Sciex model API 3000 mass spectrometer. The data were analyzed using the following equations. […]
For orientation: Liver microsomes are vesicles of endoplasmic reticulum, rich in cytochrome P450 enzymes.

Data set [7] in a line: Plasma compound concentration in the in vivo efficacy study. The following applies: mice; for concentration at 24 h / concentration at 1 h / concentration at 6 h: NIH, mouse, plasma; for concentration at 24 h: 24 h post last dose on Day 3; for concentration at 1 h: 1 h post last dose on Day 3; for concentration at 6 h: 6 h post last dose on Day 3.
Data set [8] deals with Plasmodium chabaudi ASS and ASCQ strains. Put plainly: In vivo antimalarial efficacy 4-day suppressive test. The following applies: NIH mice, Day 4 postinoculation.
Experimental: Briefly, NIH mice (n=8 per group) were inoculated i.p. with 2×10^7 parasitized (Plasmodium chabaudi ASS or ASCQ) red blood cells. […] Groups (n=6) including a vehicle control and chloroquine (CQ) as a reference drug were included. Parasitemia levels were determined on the day following the last treatment (Day 4).
[9] abbreviates: 3D7, 48 h, read-out: Pf 3D7 IC50 (μM, 48 hr), 48 hr.
Where [10] appears, read: 3D7, 72 h, read-out: Pf 3D7 IC50 (μM, 72 hr), 72 hr.
The mark [11] stands for this setting: 3D7, read-out: 3D7 IC50 (μM), Table 13.
Where [12] appears, read: 3D7, read-out: Pf3D7 IC50 (μM), Table 10.
The mark [13] stands for this setting: 3D7, read-out: Pf 3D7 IC50, Table 8.
Setting [14] is: DD2, 72 h, read-out: Pf Dd2 IC50 (μM, 72 hr).
The mark [15] stands for this setting: 100 mpk orally once daily for four days.

Where two headings read alike, the source gives them in different places. Marks after values point to notes of the source that are not given here.

Broadly, the IC50 is the concentration that gives 50% inhibition.

Plasmepsin-2 (PM-2; Plm II), sequence (P46925 125-453 limits assumed): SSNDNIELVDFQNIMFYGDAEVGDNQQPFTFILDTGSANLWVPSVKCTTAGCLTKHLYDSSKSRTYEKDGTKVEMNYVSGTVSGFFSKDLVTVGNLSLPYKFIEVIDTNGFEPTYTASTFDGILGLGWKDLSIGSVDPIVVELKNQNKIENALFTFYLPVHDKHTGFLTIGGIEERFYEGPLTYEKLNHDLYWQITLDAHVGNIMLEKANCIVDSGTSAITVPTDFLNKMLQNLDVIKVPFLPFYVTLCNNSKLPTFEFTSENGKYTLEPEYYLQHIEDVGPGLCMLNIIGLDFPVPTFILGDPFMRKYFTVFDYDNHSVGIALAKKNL
recombinant human Cathepsin E, sequence (P14091 54-396): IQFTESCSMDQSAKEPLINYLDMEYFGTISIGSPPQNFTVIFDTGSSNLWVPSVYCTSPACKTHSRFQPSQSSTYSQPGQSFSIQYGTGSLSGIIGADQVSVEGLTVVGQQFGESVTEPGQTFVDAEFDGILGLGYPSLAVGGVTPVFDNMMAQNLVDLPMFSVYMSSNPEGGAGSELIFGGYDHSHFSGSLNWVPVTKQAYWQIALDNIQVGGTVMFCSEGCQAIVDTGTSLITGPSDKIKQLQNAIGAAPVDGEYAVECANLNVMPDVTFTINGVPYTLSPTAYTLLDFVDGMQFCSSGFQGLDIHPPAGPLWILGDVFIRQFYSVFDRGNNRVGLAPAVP

Turning to `COc1ccc(C2(c3ccc(OC)cc3)NC(=N)N(C3CCOCC3)C2=O)cc1` [Example 176, 2-imino-5,5-bis(4-methoxyphenyl)-3-(oxan-4-yl)-imidazolidin-4-one], the 50% inhibitory concentration (IC50) came to 0.404 µM in data set [1] (setting [9]); 0.459 µM in data set [1] (setting [10]); 0.459 µM in data set [1] (setting [11]); 0.459 µM in data set [1] (setting [12]); 0.453 µM in data set [1] (setting [13]); 0.526 µM in data set [2] (setting [14]). Further, the IC50 was 0.526 µM in data set [2] (DD2, read-out: Dd2 IC50 (μM)); 0.007 µM in data set [3] (Table 8, read-out: PM-II IC50); 0.00681 µM in data set [3] (Table 13, read-out: PM-2 IC50); above 10 µM in data set [4]; 0.511 µM in data set [5]. The half-life at 1 μM in data set [6] came out at 83 min. Further, the concentration at 24 h in data set [7] (110 mg/kg, 110 mpk oral) is 29 ng/mL. Also, the “Plasma [compound] (ng/mL), determined at 30 min post dose” value in data set [7] (110 mpk oral, 30 min post last dose on Day 3) was 4140^e ng/mL. Besides, the “% Inhibition of parasitemia” value in data set [8] (110 mpk orally once daily for four days) is on record as 63%.

`COc1ccc(C2(c3ccc(OC)cc3)NC(=N)N(C3CCN(C(=O)OC(C)(C)C)CC3)C2=O)cc1` [Example 206, tert-butyl 4-[2-imino-4,4-bis(4-methoxyphenyl)-5-oxoimidazolidin-1-yl]piperidine-1-carboxylate]: the IC50 is 0.339 µM in data set [1] (setting [9]); 0.383 µM in data set [1] (setting [10]); 0.436 µM in data set [1] (setting [11]); 0.436 µM in data set [1] (setting [12]); 0.383 µM in data set [1] (setting [13]); 0.367 µM in data set [2] (setting [14]). The half-inhibitory concentration (IC50) in data set [3] (Table 8, read-out: PM-II IC50) is 0.002 µM; in data set [3] (Table 13, read-out: PM-2 IC50), 0.00276 µM; in data set [4], 0.52 µM; in data set [5] it was 0.233 µM. In addition, the half-life at 1 μM in data set [6] stood at 14 min. Besides, the concentration at 1 h in data set [7] (100 mg/kg, 100 mpk oral) is 2520 ng/mL. This compound yielded a concentration at 6 h in data set [7] (100 mg/kg, 100 mpk oral) of 2190 ng/mL. In data set [7] (100 mg/kg, 100 mpk oral), this compound gave a concentration at 24 h of 7 ng/mL. The “% Inhibition of parasitemia” value in data set [8] (setting [15]) is listed as 73%.

For the compound `COc1ccc(C2(c3ccc(OC)cc3)NC(=N)N(CC3CCOCC3)C2=O)cc1` [Example 275, 2-imino-5,5-bis(4-methoxyphenyl)-3-(oxan-4-ylmethyl)imidazolidin-4-one], the 50% inhibitory concentration (IC50) in data set [1] (setting [9]) turned out to be 0.571 µM; in data set [1] (setting [10]), 0.463 µM; in data set [1] (setting [11]), 0.521 µM; in data set [1] (setting [12]), 0.463 µM; in data set [1] (setting [13]) it was 0.463 µM; in data set [2] (setting [14]), 0.442 µM. Besides, the IC50 was 0.442 µM in data set [2] (DD2, read-out: Dd2 IC50 (μM)); 0.017 µM in data set [3] (Table 8, read-out: PM-II IC50); 0.0169 µM in data set [3] (Table 13, read-out: PM-2 IC50); 0.934 µM in data set [4]; 0.841 µM in data set [5]. In addition, the half-life at 1 μM in data set [6] is 35 min. Besides, the concentration at 1 h in data set [7] (100 mg/kg, 100 mpk oral) was 10400 ng/mL. Besides, the concentration at 6 h in data set [7] (100 mg/kg, 100 mpk oral) is 3030 ng/mL. This compound gave a concentration at 24 h in data set [7] (100 mg/kg, 100 mpk oral) of 123 ng/mL. In data set [8] (setting [15]), the “% Inhibition of parasitemia” value came out at 41%.

For the origin of these results see patent US9353089B2, “Compositions and methods for the treatment of malaria” (Saint Louis University, priority 2013, dated 2016).
